Here are results for 18 compounds from patent US20240034733A1, “KRAS G12D INHIBITORS” (Mirati Therapeutics, Inc., priority 2020, published 2024).

Each structure is given as a SMILES string.

Assay [1] concerns the target T1, GDP-loaded recombinant human KRAS G12D (Homo sapiens, UniProt P01116, G12D).
T1 construct: corresponding to amino acids 1:169, produced at Array BioPharma; biotin (biotinylated); made in house
The experiment in a line: KRas G12D Binding Assay (TR-FRET displacement of Cy5 labelled tracer). The conditions noted are these: 60 minute incubation at 22° C. On the procedure: This Example illustrates that exemplary compounds of the present invention bind to KRas G12D and are capable of displacing a labeled tracer ligand occupying the KRas G12D binding site.
The ability of a compound to bind to KRAS G12D was measured using a TR-FRET displacement assay. Biotinylated GDP-loaded recombinant human KRAS G12D (corresponding to amino acids 1:169, produced at Array BioPharma) was incubated with a custom-made Cy5 labelled tracer, europium labelled streptavidin and compound (2% DMSO final) in buffer (50 mM HEPES [pH 7.5], 5 mM MgCl2, 0.005% Tween-20 & 1 mM DTT). After a 60 minute incubation at 22° C., the reaction was measured using a PerkinElmer EnVision multimode plate reader via TR-FRET dual wavelength detection, and the percent of control (POC) calculated using a ratiometric emission factor. […] The POC values were fit to a 4-parameter logistic curve and the IC50 value was determined as the concentration where the curve crosses 50 POC.
On the technique in general: In TR-FRET formats the signal depends on donor and acceptor labels being close together.

Assay [2] deals with KRas G12D-mediated phosphorylation of ERK. As to the kind of experiment: Inhibition of KRas G12D-mediated phosphorylation of ERK in AGS cells. The assay is classed as cell-based. Particulars: Homo sapiens; AGS cells expressing G12D, 3 hours, phospho-ERK normalized to GAPDH. On the procedure: AGS cells (ATCC CRL-1739) expressing G12D were grown in DMEM medium supplemented with 10% fetal bovine serum, 10 mM HEPES, and Penicillin/Streptomycin. Cells were plated in tissue culture treated 96 well plates at a density of 40,000 cells/well and allowed to attach for 12-14 hours. Diluted compounds were then added in a final concentration of 0.5% DMSO. After 3 hours, the medium was removed, 150 μl of 4.0% formaldehyde was added and the plates incubated at room temperature for 20 minutes. The plates were washed with PBS, and permeabilized with 150p of ice cold 100% methanol for 10 minutes. Non-specific antibody binding to the plates was blocked using 100 μL Licor blocking buffer (Li-Cor Biotechnology, Lincoln NE) for 1 hour at room temperature.
The amount of phosho-ERK was determined using an antibody specific for the phosphorylated form of ERK and compared to the amount of GAPDH. Primary antibodies used for the detection were added as follows: Phospho-ERK (Cell Signaling cs-9101) diluted 1:500 and GAPDH (Millipore MAB374) diluted 1:5000 in Licor block+0.05% Tween 20. The plates were incubated for 2 hours at room temperature. The plates were washed with PBS+0.05% Tween 20.
Secondary antibodies used to visualize primary antibodies were added as follows: Anti-rabbit-680 diluted 1:1000 and Anti-mouse-800 diluted 1:1000 both in Licor block+0.05% Tween20, and were incubated for 1 hour at room temperature. The plates were washed with PBS +0.05% Tween 20. A 100 μl aliquot of PBS was added to each well and the plates were read on a Li-Cor Odyssey CLX plate reader phospho-ERK (Thr202/Tyr204) signal was normalized to the GAPDH signal for each well and percent of DMSO control values were calculated. IC50 values were generated using a 4-parameter fit of the dose response curve

T1 sequence (P01116 1-169 isoform P01116-2 G12D): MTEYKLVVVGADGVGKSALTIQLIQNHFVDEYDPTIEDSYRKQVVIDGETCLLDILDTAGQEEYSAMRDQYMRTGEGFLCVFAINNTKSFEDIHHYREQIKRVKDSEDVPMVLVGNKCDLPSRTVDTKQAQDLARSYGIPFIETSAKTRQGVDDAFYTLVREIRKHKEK

Consider `Oc1cc(-c2ccc3c(N4CC5CCC(C4)N5)nc(OCC45CCCN4C[C@H](F)C5)nc3c2F)c2c(Cl)cccc2c1` (mixture of isomers) [Example 5, 4-(4-((1R,5S)-3,8-diazabicyclo[3.2.1]octan-3-yl)-8-fluoro-2-(((2R,7aS)-2-fluorotetrahydro-1H-pyrrolizin-7a(5H)-yl)methoxy)quinazolin-7-yl)-5-chloronaphthalen-2-ol], for which the IC50 in assay [1] turned out to be 1.4 nM; in assay [2], 42 nM.

As to `CN1CCC[C@H]1COc1nc(N2C[C@H]3CC[C@@H](C2)N3)c2cc(Oc3ccccc3Cl)c(-c3cc(O)cc4ccccc34)cc2n1` [Example 19, 4-(4-((1R,5S)-3,8-diazabicyclo[3.2.1]octan-3-yl)-6-(2-chlorophenoxy)-2-(((S)-1-methylpyrrolidin-2-yl)methoxy)quinazolin-7-yl)naphthalen-2-ol], the concentration for half-maximal inhibition (IC50) is 1.3 nM in assay [1] and 1700 nM in assay [2].

`Oc1cc(-c2cc3nc(OC[C@@]45CCCN4C[C@H](F)C5)nc(N4C[C@H]5CC[C@@H](C4)N5)c3cc2Oc2ccccc2Cl)c2c(Cl)cccc2c1` [Example 23, 4-(4-((1R,5S)-3,8-diazabicyclo[3.2.1]octan-3-yl)-6-(2-chlorophenoxy)-2-(((2R,7aS)-2-fluorotetrahydro-1H-pyrrolizin-7a(5H)-yl)methoxy)quinazolin-7-yl)-5-chloronaphthalen-2-ol]: the concentration for half-maximal inhibition (IC50) came to 6.6 nM in assay [1] and 264 nM in assay [2].

In the case of `Oc1cccc(F)c1-c1c(Cl)cc2c(N3CC4CCC(C3)N4)nc(OCC34CCCN3C[C@H](F)C4)nc2c1F` (mixture of isomers) [Example 6, 2-(4-((1R,5S)-3,8-diazabicyclo[3.2.1]octan-3-yl)-6-chloro-8-fluoro-2-(((2R,7aS)-2-fluorotetrahydro-1H-pyrrolizin-7a(5H)-yl)methoxy)quinazolin-7-yl)-3-fluorophenol], the concentration for half-maximal inhibition (IC50) in assay [1] amounted to 3.5 nM; in assay [2] it was 1800 nM.

`N#Cc1ccccc1Oc1cc2c(N3C[C@H]4CC[C@@H](C3)N4)nc(OCC34CCCN3CCC4)nc2cc1-c1cc(O)cc2ccccc12` [Example 21, 2-((4-((1R,5S)-3,8-diazabicyclo[3.2.1]octan-3-yl)-7-(3-hydroxynaphthalen-1-yl)-2-((tetrahydro-1H-pyrrolizin-7a(5H)-yl)methoxy)quinazolin-6-yl)oxy)benzonitrile]: the IC50 came out at 1 nM in assay [1] and 1270 nM in assay [2].

Consider `CN1CCC[C@H]1COc1nc(N2C[C@H]3CC[C@@H](C2)N3)c2cc(Oc3cccc(F)c3C#N)c(-c3cc(O)cc4ccccc34)c(F)c2n1` [Example 26, 2-((4-((1R,5S)-3,8-diazabicyclo[3.2.1]octan-3-yl)-8-fluoro-7-(3-hydroxynaphthalen-1-yl)-2-(((S)-1-methylpyrrolidin-2-yl)methoxy)quinazolin-6-yl)oxy)-6-fluorobenzonitrile], for which the half-maximal inhibitory concentration (IC50) in assay [1] was found to be 7.4 nM; in assay [2], 3540 nM.

On to `COc1ccc(Oc2cc3c(N4C[C@H]5CC[C@@H](C4)N5)nc(OC[C@@H]4CCCN4C)nc3cc2-c2cc(O)cc3ccccc23)c(Cl)c1` [Example 18, 4-(4-((1R,5S)-3,8-diazabicyclo[3.2.1]octan-3-yl)-6-(2-chloro-4-methoxyphenoxy)-2-(((S)-1-methylpyrrolidin-2-yl)methoxy)quinazolin-7-yl)naphthalen-2-ol], for which the IC50 in assay [1] was determined as 11.5 nM; in assay [2] it was 1370 nM.

In the case of `N#Cc1ccccc1Oc1cc2c(N3CC4CCC(C3)N4)nc(OCC34CCCN3C[C@H](F)C4)nc2c(F)c1-c1cc(O)cc2ccccc12` (mixture of isomers) [Example 27, 2-((4-((1R,5S)-3,8-diazabicyclo[3.2.1]octan-3-yl)-8-fluoro-2-(((2R,7aS)-2-fluorotetrahydro-1H-pyrrolizin-7a(5H)-yl)methoxy)-7-(3-hydroxynaphthalen-1-yl)quinazolin-6-yl)oxy)benzonitrile], the values for the IC50 in assay [1] and in assay [2] were 3.6 nM and 44 nM, respectively.

For the compound `N#Cc1ccccc1Oc1cc2c(N3CC4CCC(C3)N4)nc(OCC34CCCN3C[C@H](F)C4)nc2cc1-c1cc(O)cc2ccccc12` (mixture of isomers) [Example 22, 2-((4-((1R,5R)-3,8-diazabicyclo[3.2.1]octan-3-yl)-2-(((2R,7aS)-2-fluorotetrahydro-1H-pyrrolizin-7a(5H)-yl)methoxy)-7-(3-hydroxynaphthalen-1-yl)quinazolin-6-yl)oxy)benzonitrile], the IC50 in assay [1] came to 1.7 nM; in assay [2], 140 nM.

In the case of `CN1CCC[C@H]1COc1nc(N2CC3CCC(C2)N3)c2cc(Oc3cccnc3)c(-c3cc(O)cc4ccccc34)cc2n1` [Example 1], the IC50 in assay [1] worked out at 7 nM; in assay [2], 8390 nM.

Consider `CN1CCC[C@H]1COc1nc(N2C[C@H]3CC[C@@H](C2)N3)c2cc(Oc3c(Cl)cccc3C#N)c(-c3cc(O)cc4ccccc34)c(F)c2n1` [Example 25, 2-((4-((1R,5S)-3,8-diazabicyclo[3.2.1]octan-3-yl)-8-fluoro-7-(3-hydroxynaphthalen-1-yl)-2-(((S)-1-methylpyrrolidin-2-yl)methoxy)quinazolin-6-yl)oxy)-3-chlorobenzonitrile], for which the IC50 in assay [1] is 5.3 nM; in assay [2] it was 784 nM.

For `Oc1cc(-c2ccc3c(N4C[C@H]5CC[C@@H](C4)N5)nc(OCC45CCCN4CCC5)nc3c2F)c2ccccc2c1` [Example 3, 4-(4-((1R,5S)-3,8-diazabicyclo[3.2.1]octan-3-yl)-8-fluoro-2-((tetrahydro-1H-pyrrolizin-7a(5H)-yl)methoxy)quinazolin-7-yl)naphthalen-2-ol], the values for the concentration for half-maximal inhibition (IC50) in assay [1] and in assay [2] were 0.5 nM and 95 nM, respectively.

On to `CN1CCC[C@H]1COc1nc(N2CCN(CCCl)CC2)c2ccc(-c3cc(O)cc4ccccc34)c(F)c2n1` [Example 9, (S)-4-(4-(4-(2-chloroethyl)piperazin-1-yl)-8-fluoro-2-((1-methylpyrrolidin-2-yl)methoxy)quinazolin-7-yl)naphthalen-2-ol], for which the IC50 in assay [1] came out at 187 nM; in assay [2], 6790 nM.

In the case of `COc1ccc(F)c(Oc2cc3c(N4C[C@H]5CC[C@@H](C4)N5)nc(OC[C@@H]4CCCN4C)nc3cc2-c2cc(O)cc3ccccc23)c1` [Example 17, 4-(4-((1R,5S)-3,8-diazabicyclo[3.2.1]octan-3-yl)-6-(2-fluoro-5-methoxyphenoxy)-2-(((S)-1-methylpyrrolidin-2-yl)methoxy)quinazolin-7-yl)naphthalen-2-ol bis(2,2,2-trifluoroacetate)], the values for the IC50 in assay [1] and in assay [2] were 8 nM and 5560 nM, respectively.

`CN1CCC[C@H]1COc1nc(N2C[C@H]3CC[C@@H](C2)N3)c2cc(Oc3ccccc3C#N)c(-c3cc(O)cc4ccccc34)c(F)c2n1` [Example 24, 2-((4-((1R,5S)-3,8-diazabicyclo[3.2.1]octan-3-yl)-8-fluoro-7-(3-hydroxynaphthalen-1-yl)-2-(((S)-1-methylpyrrolidin-2-yl)methoxy)quinazolin-6-yl)oxy)benzonitrile]: the results for the IC50 in assay [1] and in assay [2] were 1.4 nM and 377 nM, respectively.

Take `Oc1cc(-c2ccc3c(N4CC5CCC(C4)N5)nc(OCC45CCCN4C[C@H](F)C5)nc3c2F)c2ccccc2c1` (mixture of isomers) [Example 28, 4-(4-((1R,5S)-3,8-diazabicyclo[3.2.1]octan-3-yl)-8-fluoro-2-(((2R,7aS)-2-fluorotetrahydro-1H-pyrrolizin-7a(5H)-yl)methoxy)quinazolin-7-yl)naphthalen-2-ol]: the concentration for half-maximal inhibition (IC50) amounted to 0.6 nM in assay [1] and 171 nM in assay [2].

For the compound `Oc1cc(-c2ccc3c(N4C[C@H]5CC[C@@H](C4)N5)nc(OCC45CCCN4CCC5)nc3c2F)c2c(Cl)cccc2c1` [Example 4, 4-(4-((1R,5S)-3,8-diazabicyclo[3.2.1]octan-3-yl)-8-fluoro-2-((tetrahydro-1H-pyrrolizin-7a(5H)-yl)methoxy)quinazolin-7-yl)-5-chloronaphthalen-2-ol], the IC50 in assay [1] was 0.7 nM; in assay [2], 21 nM.

`CN1CCC[C@H]1COc1nc(N2C[C@H]3CC[C@@H](C2)N3)c2cc(Oc3ccccc3C#N)c(-c3cc(O)cc4ccccc34)cc2n1` [Example 20, 2-((4-((1R,5S)-3,8-diazabicyclo[3.2.1]octan-3-yl)-7-(3-hydroxynaphthalen-1-yl)-2-(((S)-1-methylpyrrolidin-2-yl)methoxy)quinazolin-6-yl)oxy)benzonitrile]: the IC50 in assay [1] turned out to be 1.6 nM; in assay [2] it was 2160 nM.

Broadly, the IC50 is the concentration that gives 50% inhibition.
